Source: article PMC10059712, “Structure Elucidation of Two Intriguing Neo-Debromoaplysiatoxin Derivatives from Marine Cyanobacterium Lyngbya sp. Showing Strong Inhibition of Kv1.5 Potassium Channel and Differential Cytotoxicity” (Molecules, 2023)

Target: T1, Kv1.5 K+ channel (Homo sapiens, UniProt P22460)
T1 construct: gene KCNA5; human Kv1.5 stably expressed in LTK cells (LTK-Kv1.5)
Assay: patch clamp of Kv1.[…] currents in LTK-Kv1.[…] cells
Format: cell-based

T1 sequence (P22460 whole entry): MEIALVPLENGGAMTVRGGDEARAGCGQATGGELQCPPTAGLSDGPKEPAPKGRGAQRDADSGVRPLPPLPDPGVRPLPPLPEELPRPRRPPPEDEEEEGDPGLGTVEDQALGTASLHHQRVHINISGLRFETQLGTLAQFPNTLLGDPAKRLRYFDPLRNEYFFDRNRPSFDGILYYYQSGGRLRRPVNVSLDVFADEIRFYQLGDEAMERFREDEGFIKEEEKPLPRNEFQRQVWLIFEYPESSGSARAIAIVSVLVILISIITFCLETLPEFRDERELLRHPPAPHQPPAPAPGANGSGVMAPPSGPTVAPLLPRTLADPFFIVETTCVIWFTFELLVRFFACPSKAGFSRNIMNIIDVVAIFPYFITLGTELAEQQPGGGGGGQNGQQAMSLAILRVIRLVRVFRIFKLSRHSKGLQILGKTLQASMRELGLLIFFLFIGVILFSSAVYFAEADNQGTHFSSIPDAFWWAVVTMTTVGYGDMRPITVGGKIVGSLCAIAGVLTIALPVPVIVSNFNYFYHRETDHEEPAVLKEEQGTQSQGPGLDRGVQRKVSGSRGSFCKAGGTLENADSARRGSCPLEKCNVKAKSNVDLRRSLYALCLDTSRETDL

`CO[C@@H](CC[C@H](C)[C@H]1O[C@]2(O)[C@H]3[C@@H](OC(=O)C[C@]3(O)[C@H](C)CC2(C)C)[C@@H]1C)c1cccc(O)c1` [compound 1, neo-debromoaplysiatoxin I] showed an IC50 of 2590 ± 370 nM.
For `CO[C@@H](CC[C@H](C)[C@H]1O[C@]23C[C@H](OC(=O)C[C@H]([C@@H](C)O)OC(=O)CC(=O)C(C)(CC2(C)C)OO3)[C@@H]1C)c1cccc(O)c1` [compound 2, neo-debromoaplysiatoxin J], the IC50 was 1640 ± 150 nM.
